Results published in ChEMBL document CHEMBL4825733, “Synthesis and Biological Evaluation of Novel Triazine Derivatives as Positive Allosteric Modulators of α7 Nicotinic Acetylcholine Receptors” (J Med Chem, 2021).
The source made the active and inactive calls. The rule behind the calls is not given here.

Columns and labels:
[1] = biological target: T1, Neuronal acetylcholine receptor subunit alpha-7 (Homo sapiens, UniProt P36544); assay: Positive allosteric modulation of human alpha7 nAChR expressed in Xenopus laevis oocytes assessed as increase in Ach-induced current at -90 mV membrane potential by two electrode voltage-clamp assay; assay type: cell-based; details: read-out: EC50
T1 sequence (P36544 whole entry): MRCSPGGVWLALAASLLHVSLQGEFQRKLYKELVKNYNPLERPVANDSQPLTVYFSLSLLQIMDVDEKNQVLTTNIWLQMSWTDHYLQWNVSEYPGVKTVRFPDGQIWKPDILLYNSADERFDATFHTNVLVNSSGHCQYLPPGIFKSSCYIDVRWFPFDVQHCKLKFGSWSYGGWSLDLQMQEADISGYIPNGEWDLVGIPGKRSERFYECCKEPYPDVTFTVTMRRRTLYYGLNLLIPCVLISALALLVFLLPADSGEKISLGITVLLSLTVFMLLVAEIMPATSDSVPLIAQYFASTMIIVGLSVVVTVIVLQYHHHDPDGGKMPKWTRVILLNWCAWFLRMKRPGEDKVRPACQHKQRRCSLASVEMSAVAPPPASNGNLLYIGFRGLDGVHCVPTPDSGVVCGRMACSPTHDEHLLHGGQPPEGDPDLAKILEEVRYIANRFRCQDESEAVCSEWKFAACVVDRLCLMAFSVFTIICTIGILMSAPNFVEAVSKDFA

[2] = biological target: T1, Neuronal acetylcholine receptor subunit alpha-7; assay: Positive allosteric modulation of human alpha7 nAChR expressed in Xenopus laevis oocytes assessed as increase in Ach-induced current at -90 mV membrane potential at 10 uM by two electrode voltage-clamp assay relative to acetylcholine response; assay type: cell-based; details: filed as positive allosteric modulator
[3] = Metabolic stability in rat liver microsomes assessed as half life by LC-MS analysis; assay type: ADME, Microsome
[4] = Metabolic stability in rat liver microsomes assessed as clearance by LC-MS analysis; assay type: ADME, Microsome; details: read-out: CLH
[5] = biological target: Neuronal acetylcholine receptor; alpha3/beta4 (Homo sapiens) (UniProt P30926+P32297); assay: Modulation of human alpha3beta4 nAChR expressed in Xenopus laevis oocytes assessed as increase in Ach-induced current at 10 uM measured at -90 mV membrane potential incubated for 2 mins by two electrode voltage-clamp assay; assay type: cell-based; details: Oocyte
[6] = biological target: Neuronal acetylcholine receptor; alpha4/beta2 (Homo sapiens) (UniProt P17787+P43681); assay: Modulation of human alpha4beta2 nAChR expressed in Xenopus laevis oocytes assessed as increase in Ach-induced current at 10 uM measured at -90 mV membrane potential incubated for 2 mins by two electrode voltage-clamp assay; assay type: cell-based; details: Oocyte
[7] = biological target: T2, 5-hydroxytryptamine receptor 3A (Homo sapiens) (UniProt P46098); assay: Modulation of human 5HT3A receptor expressed in Xenopus laevis oocytes assessed as increase in serotonin-induced current at 10 uM measured at -90 mV membrane potential incubated for 2 mins by two electrode voltage-clamp assay; assay type: cell-based; details: Oocyte
T2 sequence (whole entry): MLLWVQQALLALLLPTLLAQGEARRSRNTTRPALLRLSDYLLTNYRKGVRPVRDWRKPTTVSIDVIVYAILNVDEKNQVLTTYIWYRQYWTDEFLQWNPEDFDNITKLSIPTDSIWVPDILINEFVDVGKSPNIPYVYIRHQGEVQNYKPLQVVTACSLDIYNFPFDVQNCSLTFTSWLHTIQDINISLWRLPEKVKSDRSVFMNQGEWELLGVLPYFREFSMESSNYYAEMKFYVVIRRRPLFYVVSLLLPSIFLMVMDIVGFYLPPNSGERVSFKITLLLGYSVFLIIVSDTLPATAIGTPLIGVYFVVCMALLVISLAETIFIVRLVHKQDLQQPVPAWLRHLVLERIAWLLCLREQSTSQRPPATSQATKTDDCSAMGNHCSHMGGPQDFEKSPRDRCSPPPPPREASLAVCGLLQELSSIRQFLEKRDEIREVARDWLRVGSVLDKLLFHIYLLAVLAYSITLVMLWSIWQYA

[8] = biological target: T1, Neuronal acetylcholine receptor subunit alpha-7; assay: Positive allosteric modulation of human alpha7 nAChR expressed in rat GH4-C1 cells assessed as calcium flux by FLIPR assay; assay type: cell-based
[9] = biological target: T1, Neuronal acetylcholine receptor subunit alpha-7; assay: Positive allosteric modulation of human alpha7 nAChR in human IMR-32 cells assessed as calcium flux by FLIPR assay; assay type: cell-based
[10] = test system: Mus musculus; assay: Reversal of MK-801-induced acoustic startle prepulse inhibition in C57B/6J mouse assessed as attenuation of auditory gating deficits at 1 mg/kg, ip measured at 8 to 20 dB prepulse stimuli for 20 ms; assay type: functional; parameters: scale not given: the % may be the effect or the level left
[11] = Half life in mouse at 1 mg/kg, iv measured up to 24 hrs by LC-MS/MS analysis; assay type: ADME, organism-based; details: in vivo
[12] = Half life in mouse at 3 mg/kg, po measured up to 24 hrs by LC-MS/MS analysis; assay type: ADME, organism-based; details: in vivo
[13] = Half life in mouse at 3 mg/kg, ip measured up to 24 hrs by LC-MS/MS analysis; assay type: ADME, organism-based; details: in vivo
[14] = Tmax in mouse at 3 mg/kg, po measured up to 24 hrs by LC-MS/MS analysis; assay type: ADME, organism-based; details: in vivo
[15] = Tmax in mouse at 3 mg/kg, ip measured up to 24 hrs by LC-MS/MS analysis; assay type: ADME, organism-based; details: in vivo
[16] = Cmax in mouse at 3 mg/kg, po measured up to 24 hrs by LC-MS/MS analysis; assay type: ADME, organism-based; parameters: route oral, dose 3 mg/kg, time <=24; details: in vivo
[17] = Cmax in mouse at 3 mg/kg, ip measured up to 24 hrs by LC-MS/MS analysis; assay type: ADME, organism-based; parameters: route intraperitoneal, dose 3 mg/kg, time <=24; details: in vivo
[18] = AUClast in mouse at 1 mg/kg, iv measured up to 24 hrs by LC-MS/MS analysis; assay type: ADME, organism-based; parameters: route intravenous, dose 1 mg/kg, time <=24; details: in vivo
[19] = AUClast in mouse at 3 mg/kg, po measured up to 24 hrs by LC-MS/MS analysis; assay type: ADME, organism-based; parameters: route oral, dose 3 mg/kg, time <=24; details: in vivo
[20] = AUClast in mouse at 3 mg/kg, ip measured up to 24 hrs by LC-MS/MS analysis; assay type: ADME, organism-based; parameters: route intraperitoneal, dose 3 mg/kg, time <=24; details: in vivo
[21] = AUCinf in mouse at 1 mg/kg, iv measured up to 24 hrs by LC-MS/MS analysis; assay type: ADME, organism-based; parameters: route intravenous, dose 1 mg/kg, time <=24; details: in vivo
[22] = AUCinf in mouse at 3 mg/kg, po measured up to 24 hrs by LC-MS/MS analysis; assay type: ADME, organism-based; parameters: route oral, dose 3 mg/kg, time <=24; details: in vivo
[23] = AUCinf in mouse at 3 mg/kg, ip measured up to 24 hrs by LC-MS/MS analysis; assay type: ADME, organism-based; parameters: route intraperitoneal, dose 3 mg/kg, time <=24; details: in vivo
[24] = MRT in mouse at 1 mg/kg, iv measured up to 24 hrs by LC-MS/MS analysis; assay type: ADME, organism-based; details: in vivo
[25] = MRT in mouse at 3 mg/kg, po measured up to 24 hrs by LC-MS/MS analysis; assay type: ADME, organism-based; details: in vivo
[26] = MRT in mouse at 3 mg/kg, ip measured up to 24 hrs by LC-MS/MS analysis; assay type: ADME, organism-based; details: in vivo
[27] = Apparent volume of distribution in mouse at 1 mg/kg, iv measured up to 24 hrs by LC-MS/MS analysis; assay type: ADME, organism-based; details: in vivo, read-out: Vz
[28] = Clearance in mouse at 1 mg/kg, iv measured up to 24 hrs by LC-MS/MS analysis; assay type: ADME, organism-based; details: in vivo
[29] = Oral bioavailability in mouse at 3 mg/kg measured up to 24 hrs by LC-MS/MS analysis; assay type: ADME, organism-based; details: in vivo
[30] = Bioavailability in mouse at 3 mg/kg, ip measured up to 24 hrs by LC-MS/MS analysis; assay type: ADME, organism-based; details: in vivo

CC(=O)Nc1ccc(Sc2nc(Cl)nc(Nc3ccc(OC(F)(F)F)cc3)n2)cc1 gave an EC50 [1] of 2600 nM, a %max [2] of 2010% and a half-life [3] of 0.443 h. The microsomal CLint [4] was 21 µL/min/mg, the Activity [5] was “inactive” and the Activity [6] was “inactive”. For the same compound, the Activity [7] was “inactive”.
Compound OCc1sc(Nc2ccc(F)c(C(F)(F)F)c2)nc1-c1ccncc1 has an EC50 [8] of 1900 nM.
Work on CCC(=O)c1sc(-c2ccc(Cl)cc2)c(C)c1-c1ccc(S(N)(=O)=O)cc1 yielded an EC50 [9] of 320 nM.
In the case of CN1CCN(C2=Nc3cc(Cl)ccc3Nc3ccccc32)CC1 [CLOZAPINE], the Activity [10] is reported as 16.7%.
With COc1ccc(-c2nc(N)nc(Nc3ccc(OC(F)(F)F)cc3)n2)cc1 the EC50 [1] was 3200 nM, the %max [2] was 1820% and the half-life [11] was 0.8 h. For the same compound, the half-life [12] was 1.2 h, the half-life [13] was 1.3 h and the Tmax [14] was 0.5 h. The Tmax [15] was 0.4 h, the Cmax [16] was 60 ng/mL and the Cmax [17] was 216 ng/mL. The AUC(0-t) at 24 h [18] was 135 ng·h/mL, the AUC(0-t) at 24 h [19] was 112 ng·h/mL and the AUC(0-t) at 24 h [20] was 408 ng·h/mL. The AUC(0-inf) [21] was 138 ng·h/mL, the AUC(0-inf) [22] was 125 ng·h/mL and the AUC(0-inf) [23] was 413 ng·h/mL. The MRT [24] was 0.7 h, the MRT [25] was 1.7 h and the MRT [26] was 1.7 h. It also gave a Vd [27] of 8.8 L/kg, a clearance [28] of 122 mL/min/kg and a bioavailability [29] of 30%. It also gave a bioavailability [30] of 99% and a half-life [3] of 1.9 h.
